From publication PMC2001878, “Pharmacokinetic studies with zinc(II)-phthalocyanine in tumour-bearing mice” (British Journal of Cancer, 1987)
Entries after “also recorded” stand apart in the source; their conditions may differ.

Assays:
[1] = system: serum lipoproteins; assay: Sephacryl S-300 chromatography of mouse serum after Zn-Pc administration; type: in vivo, BALB/c mice; conditions: sera taken between 1 h and 1 week after i.p. administration; second protein peak on Sephacryl S-300
Excerpt: (§1) Br. J. Cancer (1987), 56, 597~~~~~~ ~~-60?TeMcilnPssLd,18 Pharmacokinetic studies with zinc(II)-phthalocyanine in tumour-bearing mice E. Reddi, G. Lo Castro, R. Biolo & G. Jori Department of Biology via Loredan 10, University of Padova, 1-35131 Padova, Italy. Summary Zn(II)-phthalocyanine (Zn-Pc) incorporated into unilamellar liposomes of dipalmitoyl- phosphatidylcholine has been injected intraperitoneally (0.5mgkg-1) to BALB/c mice bearing a transplanted MS-2 fibrosarcoma. […] Several normal tissues take up the drug within 3 hours after administration but release it almost completely after 24-48 hours. […] The results are discussed in terms of a possible use of Zn-Pc as a photosensitizer in the photodynamic therapy of tumours. Haematoporphyrin and haematoporphyrin derivative (HpD) are presently used as sensitizers for the specific destruction of tumours by photodynamic therapy (PDT) (Moan, 1986; Spikes & Jori, 1987). […] Pharmacokinetic studies The Zn-Pc was injected- i.p. into tumour-bearing mice after incorporation of the dye into small unilamellar liposomes of DPPC following the procedure described by Valduga et al. (1987): The Zn-Pc/DPPC ratio was 1:36 on a molar basis, as assessed from the weighed amount of phospholipid and absorbance measurements at 680 nm for Zn-Pc (E= 1.68 x 105 M-1 cm- at 673 nm). […]

[2] = Recovery of Zn-Pc from tumour and normal tissues of tumour-bearing mice; type: in vivo, BALB/c mice
Excerpt: Br. J. Cancer (1987), 56, 597~~~~~~ ~~-60?TeMcilnPssLd,18 Pharmacokinetic studies with zinc(II)-phthalocyanine in tumour-bearing mice E. Reddi, G. Lo Castro, R. Biolo & G. Jori Department of Biology via Loredan 10, University of Padova, 1-35131 Padova, Italy. Summary Zn(II)-phthalocyanine (Zn-Pc) incorporated into unilamellar liposomes of dipalmitoyl- phosphatidylcholine has been injected intraperitoneally (0.5mgkg-1) to BALB/c mice bearing a transplanted MS-2 fibrosarcoma. […] Several normal tissues take up the drug within 3 hours after administration but release it almost completely after 24-48 hours. […] The results are discussed in terms of a possible use of Zn-Pc as a photosensitizer in the photodynamic therapy of tumours. Haematoporphyrin and haematoporphyrin derivative (HpD) are presently used as sensitizers for the specific destruction of tumours by photodynamic therapy (PDT) (Moan, 1986; Spikes & Jori, 1987). Although the technique is being applied for the treatment of a variety of neoplasias at both the experimental and clinical level (Dougherty, 1984), PDT is facing some problems and/or limitations. Thus, HpD as it is prepared from Hp (Lipson et al., 1961) is a complex mixture of porphyrins, whose composition is often not reproduced in different preparations and may change as a function of various experimental parameters (Bonnett et al., 1981; Dougherty, 1983). […] Moreover, PDT is usually performed by irradiation with 620-630 nm light; unfortunately, the molar absorptivity of Hp or HpD in this wavelength range is very low (< 103 M- 1 cm- 1). […] The ability of phthalocyanines and some of their metal derivatives to act as efficient photosensitizers of simple biological substrates (Spikes & Bommer, 1986) and cultured cells (Ben-Hur & Rosenthal, 1985; Chan et al., 1986) has been documented. Finally, Rousseau et al. (1985) have reported that tetra- sulphophthalocyanines (TSPc) can accumulate in a mammary adenocarcinoma in rats. While tetrasulphophthalocyanines are suitable for in vivo studies because of their high water-solubility, serious problems may arise owing to the low degree of purity. Actually, the presently adopted procedures for sulfonation of phthalocyanines lead to mixtures of mono-, di-, tri- and tetra-sulphonated compounds (Linstead & Weiss, 1950; Moser & Thomas, 1983). In general, underivatized phthalocyanines can be obtained with a very high purity and display a good efficiency in the generation of activated oxygen species (Maillard et al., 1980; Wu et al., 1985). […] In this paper, we describe the pharmacokinetic behaviour of liposome-bound Zn- phthalocyanine injected into. BALB/c mice bearing a transplanted fibrosarcoma. Materials and methods Chemicals Zn2 +-phthalocyanine (Zn-Pc) was supplied by Ciba-Geigy (Switzerland) and used without further purification. […] Dipalmitoyl- phosphatidylcholine (DPPC), over 98% pure, was a product of Sigma Chemical Co.; sodium dodecylsulphate (SDS) and Sephacryl S-300 were purchased from Merck and Pharmacia, respectively. […] Pharmacokinetic studies The Zn-Pc was injected- i.p. into tumour-bearing mice after incorporation of the dye into small unilamellar liposomes of DPPC following the procedure described by Valduga et al. (1987): The Zn-Pc/DPPC ratio was 1:36 on a molar basis, as assessed from the weighed amount of phospholipid and absorbance measurements at 680 nm for Zn-Pc (E= 1.68 x 105 M-1 cm- at 673 nm). […]

[3] = system: HDL; assay: In vitro incubation of human serum with Zn-Pc incorporated into DPPC liposomes; type: in vitro ADME; conditions: Reddi et al., unpublished results
[4] = Serum concentration time course after i.p. injection of liposomal Zn-Pc in tumour-bearing mice; type: in vivo, BALB/c mice; conditions: 0.5 mg kg-1 i.p. in DPPC liposomes, mice bearing MS-2 fibrosarcoma
Excerpt: as §1, with “1987). Although the technique is being applied for the treatment of a variety of neoplasias at both the experimental and clinical level (Dougherty, 1984), PDT is facing some problems and/or limitations. Thus, HpD as it is prepared from Hp (Lipson et al., 1961) is a complex mixture of porphyrins, whose composition is often not reproduced in different preparations and may change as a function of various experimental parameters (Bonnett et al., 1981; Dougherty, 1983). […] Moreover, PDT is usually performed by irradiation with 620-630 nm light; unfortunately, the molar absorptivity of Hp or HpD in this wavelength range is very low (< 103 M- 1 cm- 1).” for “1987).”

[5] = Elimination pathway: analysis of faeces and urine of rats in metabolic cages; type: in vivo, Wistar albino rats; conditions: rapid clearance phase
[6] = parameters: method as in Tomio et al. (1982); conditions: Wistar rats; ref Tomio et al. (1982); cited from earlier work
[7] = parameters: method as in Tralau et al., 1987; conditions: i.v., ref Tralau et al., 1987, cited from earlier work

[Zn+2].c1ccc2c(c1)-c1nc-2nc2[n-]c(nc3nc([n-]c4nc(n1)-c1ccccc1-4)-c1ccccc1-3)c1ccccc21 [Zn-Pc, Zn(II)-phthalocyanine]
serum protein class transporting the drug [1]: specifically transported by serum lipoproteins; also recorded: specifically associated with the second protein peak
time of almost complete release from normal tissues ([2]; 0.5 mg kg-1 i.p.): 24 to 48 h
time of maximum tumour concentration ([2]; MS-2 fibrosarcoma, 0.5 mg kg-1 i.p. in DPPC liposomes): 18 to 24 h
ratio between Zn-Pc levels in tumour and muscle ([2]; at 18-24 h (24 h) after 0.5 mg kg-1 i.p., muscle = surrounding normal tissue): approximately 7.5
time of uptake by several normal tissues after administration ([2]; liver, kidneys, spleen, lungs, muscle, 0.5 mg kg-1 i.p.): ≤ 3 h
skin concentration of Zn-Pc ([2]; mouse skin, between 1 h and 168 h after administration, 0.5 mg kg-1 i.p.): ≤ 0.1 pug g- I tissue
fraction of drug bound by HDL [3]: at least 70%
serum half-life (fast phase) [4]: approximately 9 hours
time of maximum serum concentration after administration [4]: 3 h
fraction of Zn-Pc eliminated from serum in the fast phase ([4]; biphasic clearance): approximately 60%
elimination pathway from serum [5]: almost exclusively via the bile-gut pathway

CC1=C(CCC(=O)O)c2cc3[nH]c(cc4nc(cc5[nH]c(cc1n2)c(C)c5C(C)O)C(C)=C4C(C)O)c(C)c3CCC(=O)O (centres unmarked) [haematoporphyrin]
fraction of totally eliminated drug recovered in the faeces [6]: at least 98%

tetrasulphophthalocyanines [TSPc]
time of accumulation in tumour ([7]; fibrosarcoma implanted s.c. in the flank): 1 to 3 h
time to complete disappearance from serum [7]: ≤ 3 h
